Measurements: patent US20180273538A1, “PYRROLO[2,3-d]PYRIMIDINE DERIVATIVES, A PROCESS FOR THEIR PREPARATION AND PHARMACEUTICAL COMPOSITIONS CONTAINING THEM” (LES LABORATOIRES SERVIER, priority 2015, published 2018)

Experiments:
DYRK1A = target: T1, DYRK1A (Homo sapiens, UniProt Q13627); assay: Kinase TR-FRET assay, DYRK1A; format: biochemical
T1 construct: full-length human kinases from Carna Biosciences; purchased Carna Biosciences 04-130

DYRK1B = target: T2, DYRK1B (Homo sapiens, UniProt Q9Y463); assay: Kinase TR-FRET assay, DYRK1B; format: biochemical
T2 construct: full-length human kinases from Carna Biosciences; purchased Carna Biosciences 04-131
T2 sequence (Q9Y463 whole entry): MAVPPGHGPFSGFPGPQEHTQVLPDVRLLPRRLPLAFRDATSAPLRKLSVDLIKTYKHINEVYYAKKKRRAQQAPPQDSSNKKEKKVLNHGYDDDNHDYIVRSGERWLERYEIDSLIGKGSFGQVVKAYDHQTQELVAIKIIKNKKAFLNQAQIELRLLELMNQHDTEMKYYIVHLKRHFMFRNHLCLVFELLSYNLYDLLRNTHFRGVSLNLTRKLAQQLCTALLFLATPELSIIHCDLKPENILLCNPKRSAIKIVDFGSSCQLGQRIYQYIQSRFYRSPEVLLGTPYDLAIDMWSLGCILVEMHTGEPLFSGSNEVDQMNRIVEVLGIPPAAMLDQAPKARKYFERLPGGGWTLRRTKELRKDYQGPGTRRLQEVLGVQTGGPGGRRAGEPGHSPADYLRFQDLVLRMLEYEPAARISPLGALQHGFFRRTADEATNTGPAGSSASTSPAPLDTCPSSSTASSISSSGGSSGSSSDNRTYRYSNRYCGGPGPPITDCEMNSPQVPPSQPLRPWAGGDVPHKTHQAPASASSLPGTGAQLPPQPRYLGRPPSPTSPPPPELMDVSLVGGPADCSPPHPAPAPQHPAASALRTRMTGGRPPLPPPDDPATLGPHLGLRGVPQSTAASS

[1] = target: T3, His-TEV-DYRK1A Kinase domain (aa127-485) (Homo sapiens, UniProt Q13627); assay: Kinase ADP assay (ADP Hunter Plus); format: biochemical
T3 construct: His-TEV-DYRK1A Kinase domain (aa127-485); His (N); TEV cleavage site (N)

phospho-Ser520-DYRK1A = target: T4, phospho-Ser520-DYRK1A (Homo sapiens, UniProt Q13627); assay: Cellular DYRK1A autophosphorylation assay in U2-OS cells; format: cell-based; conditions: 5 hours exposure, read-out: IC50 (μM) P-Ser520-Dyrk1A-Cell assay
T4 construct: full-length, wild-type human DYRK1A (NM_001396) with an HA tag; expressed in transfected cells; host or cells: human U2-OS osteosarcoma cells, pcDNA3.1 plasmid

CLK1 = target: T5, CLK1 (Homo sapiens, UniProt P49759); assay: Kinase TR-FRET assay, CLK1; format: biochemical
T5 construct: full-length human kinases from Carna Biosciences; purchased Carna Biosciences 04-126
T5 sequence (P49759 1-526 isoform P49759-3): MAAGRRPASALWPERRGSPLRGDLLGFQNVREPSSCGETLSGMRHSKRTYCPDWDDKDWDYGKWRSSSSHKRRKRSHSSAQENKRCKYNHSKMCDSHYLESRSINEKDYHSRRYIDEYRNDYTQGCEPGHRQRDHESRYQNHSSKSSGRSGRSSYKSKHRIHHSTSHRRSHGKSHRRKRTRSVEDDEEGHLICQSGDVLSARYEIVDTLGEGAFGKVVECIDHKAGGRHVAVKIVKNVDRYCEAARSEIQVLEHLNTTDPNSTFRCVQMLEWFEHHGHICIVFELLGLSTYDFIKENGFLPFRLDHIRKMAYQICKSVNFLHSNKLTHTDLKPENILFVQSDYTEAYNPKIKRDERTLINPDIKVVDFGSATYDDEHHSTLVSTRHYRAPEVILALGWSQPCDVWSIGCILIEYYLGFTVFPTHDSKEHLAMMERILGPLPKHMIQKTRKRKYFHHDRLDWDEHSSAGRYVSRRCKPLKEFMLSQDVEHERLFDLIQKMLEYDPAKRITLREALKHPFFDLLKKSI

Structure (SMILES) | IC50 (DYRK1A) | IC50 (DYRK1B) | IC50 [1] | IC50 (phospho-Ser520-DYRK1A) | IC50 (CLK1)
Cc1nc(N[C@@H]2C[C@H]3CC[C@@H]2C3)c2c(-c3ccnc(N)c3)c[nH]c2n1 [Example 83, 5-(2-aminopyridin-4-yl)-N-[(1R,2R,4S)-bicyclo[2.2.1]hept-2-yl]-2-methyl-7H-pyrrolo[2,3-d]pyrimidin-4-amine] | 0.0006 µM | 0.0404 µM | 0.081 µM |  | 
Cc1nc(NCc2ccccn2)c2c(-c3ccnc(N)c3)c[nH]c2n1 [Example 53, 5-(2-aminopyridin-4-yl)-2-methyl-N-(pyridin-2-ylmethyl)-7H-pyrrolo[2,3-d]pyrimidin-4-amine] | 0.0233 µM |  | 0.021 µM | 0.238 µM | 
Cc1nc(COc2c(F)cccc2F)c2c(-c3ccnc(N)c3)c[nH]c2n1 [Example 166] |  |  | 0.025 µM | 0.118 µM | 0.248 µM
Cc1nc(NCc2cccc(Cl)c2Cl)c2c(-c3ccnc(N)c3)c[nH]c2n1 [Example 81, 5-(2-aminopyridin-4-yl)-N-(2,3-dichlorbenzyl)-2-methyl-7H-pyrrolo[2,3-d]pyrimidin-4-amine] | 0.0085 µM | 0.0141 µM | 0.014 µM | 0.166 µM | 
Cc1nc(OCc2ccc(C(C)C)cc2)c2c(-c3ccnc(N)c3)c[nH]c2n1 [Example 27, 4-{2-methyl-4-{(4-{propan-2-yl)benzyl]oxy}-7H-pyrrolo[2,3-d]pyrimidin-5-yl)pyridin-2-amine] | 0.0444 µM | 0.0522 µM | 0.04 µM |  | 
Cc1nc(NCc2cc(C)on2)c2c(-c3ccnc(N)c3)c[nH]c2n1 [Example 59, 5-(2-aminopyridin-4-yl)-2-methyl-N-[(5-methyl-1,2-oxazol-3-yl)methyl]-7H-pyrrolo[2,3-d]pyrimidin-4-amine] | 0.0102 µM | 0.0191 µM | 0.042 µM | 0.259 µM | 
Cc1nc(NCc2ncccc2C)c2c(-c3ccnc(N)c3)c[nH]c2n1 [Example 60, 5-(2-aminopyridin-4-yl)-2-methyl-N-[(3-methylpyridin-2-yl)methyl]-7H-pyrrolo[2,3-d]pyrimidin-4-amine] | 0.003 µM |  | 0.011 µM | 0.0206 µM | 
COc1cccc(F)c1CNc1nc(C)nc2[nH]cc(-c3cc(N)nc(N)c3)c12 [Example 116, 4-{4-[(2-fluoro-6-methoxybenzyl)amino]-2-methyl-7H-pyrrolo[2,3-d]pyrimidin-5-yl}pyridine-2,6-diamine] |  |  | 0.005 µM | 0.0009 µM | 0.0136 µM
Cc1nc(-c2ccccc2)c2c(-c3ccnc(N)c3)c[nH]c2n1 [Example 163] |  |  | 0.026 µM | 0.197 µM | 0.104 µM
COc1cccnc1CNc1nc(C)nc2[nH]cc(-c3ccnc(N)c3)c12 [Example 98, 5-(2-aminopyridin-4-yl)-N-[(3-methoxypyridin-2-yl)methyl]-2-methyl-7H-pyrrolo[2,3-d]pyrimidin-4-amine] |  |  | 0.022 µM | 0.192 µM | 0.0241 µM
Cc1nc(NCC(F)(F)c2ccccc2)c2c(-c3ccnc(N)c3)c[nH]c2n1 [Example 123, 5-(2-aminopyridin-4-yl)-N-(2,2-difluoro-2-phenylethyl)-2-methyl-7H-pyrrolo[2,3-d]pyrimidin-4-amine] |  |  | 0.071 µM |  | 0.0615 µM
Cc1nc(NCc2c(C)noc2C)c2c(-c3ccnc(N)c3)c[nH]c2n1 [Example 95, 5-(2-aminopyridin-4-yl)-N-[(3,5-dimethyl-1,2-oxazol-4-yl)methyl]-2-methyl-7H-pyrrolo[2,3-d]pyrimidin-4-amine] | 0.0979 µM |  | 0.066 µM | 0.534 µM | 
COc1cccc(-c2nc(C)nc3[nH]cc(-c4ccnc(N)c4)c23)c1 [Example 167] |  |  | 0.015 µM | 0.0444 µM | 0.042 µM
COc1ccccc1[C@H](C)Nc1nc(C)nc2[nH]cc(-c3ccnc(N)c3)c12 [Example 106, 5-(2-aminopyridin-4-yl)-N-[(1S)-1-(2-methoxyphenyl)ethyl]-2-methyl-7H-pyrrolo[2,3-d]pyrimidin-4-amine] |  |  | 0.018 µM | 0.177 µM | 0.0171 µM
Cc1nc(NCc2ccc(F)cc2F)c2c(-c3ccnc(N)c3)c[nH]c2n1 [Example 63, 5-(2-aminopyridin-4-yl)-N-(2,4-difluorobenzyl)-2-methyl-7H-pyrrolo[2,3-d]pyrimidin-4-amine] | 0.0107 µM |  | 0.014 µM | 0.0408 µM | 
Cc1nc(OCC2CCCC2)c2c(-c3ccncc3)c[nH]c2n1 [Example 15, 4-(cyclopentylmethoxy)-2-methyl-5-(pyridin-4-yl)-7H-pyrrolo[2,3-d]pyrimidine] | 0.0355 µM | 0.0143 µM | 0.032 µM |  | 

Structure (SMILES) | IC50 (DYRK1A) | IC50 (DYRK1B) | IC50 [1] | IC50 (phospho-Ser520-DYRK1A) | IC50 (CLK1)
Cc1nc(NCc2ccccc2F)c2c(-c3ccnc(N)c3)c[nH]c2n1 [Example 51, 5-(2-aminopyridin-4-yl)-N-(2-fluorobenzyl)-2-methyl-7H-pyrrolo[2,3-d]pyrimidin-4-amine] | 0.0029 µM |  | 0.013 µM | 0.126 µM | 
Cc1nc(N[C@@H]2CCc3ccccc32)c2c(-c3ccnc(N)c3)c[nH]c2n1 [Example 76, 5-(2-aminopyridin-4-yl)-N-[(1R)-2,3-dihydro-1H-inden-1-yl]-2-methyl-7H-pyrrolo[2,3-d]pyrimidin-4-amine] | 0.0063 µM | 0.0005 µM | 0.01 µM | 0.0672 µM | 
Cc1nc(NCC2CC2)c2c(-c3ccnc(N)c3)c[nH]c2n1 [Example 65, 5-(2-aminopyridin-4-yl)-N-(cyclopropymethyl)-2-methyl-7H-pyrrolo[2,3-d]pyrimidin-4-amine] | 0.0709 µM |  | 0.069 µM | 0.898 µM | 
CCOc1ccccc1CNc1nc(C)nc2[nH]cc(-c3ccnc(N)c3)c12 [Example 79, 5-(2-aminopyridin-4-yl)-N-(2-ethoxybenzyl)-2-methyl-7H-pyrrolo[2,3-d]pyrimidin-4-amine] | 0.0021 µM | 0.008 µM | 0.008 µM | 0.105 µM | 
Cc1cc(-c2c[nH]c3nc(C)nc(OCc4ccsc4)c23)ccn1 [Example 5, 2-methyl-5-(2-methylpyridin-4-yl)-4-(thiophen-3-ylmethoxy)-7H-pyrrolo[2,3-d]pyrimidine] | 0.0094 µM | 0.0005 µM | 0.015 µM |  | 
Cc1nc(NC(C)c2c(F)cccc2F)c2c(-c3ccnc(N)c3)c[nH]c2n1 (stereo not drawn) [Example 82, 5-(2-aminopyridin-4-yl)-N-[1-(2,6-difluorophenyl)ethyl]-2-methyl-7H-pyrrolo[2,3-d]pyrimidin-4-amine] | 0.001 µM | 0.0199 µM | 0.045 µM |  | 
Cc1nc(NCc2ccccc2OC(F)(F)F)c2c(-c3ccnc(N)c3)c[nH]c2n1 [Example 89, 5-(2-aminopyridin-4-yl)-2-methyl-N-[2-(trifluoromethoxy)benzyl]-7H-pyrrolo[2,3-d]pyrimidin-4-amine] | 0.0492 µM |  | 0.077 µM |  | 
Cc1nc(NCc2ccc(F)cc2)c2c(-c3ccnc(N)c3)c[nH]c2n1 [Example 54, 5-(2-aminopyridin-4-yl)-N-(4-fluorobenzyl)-2-methyl-7H-pyrrolo[2,3-d]pyrimidin-4-amine] | 0.0129 µM |  | 0.032 µM | 0.511 µM | 
Cc1nc(OC(C)c2ccccc2)c2c(-c3ccnc(N)c3)c[nH]c2n1 (stereo not drawn) [Example 20, 4-[2-methyl-4-(1-phenylethoxy)-7H-pyrrolo[2,3-d]pyrimidin-5-yl]pyridin-2-amine] | 0.0197 µM |  | 0.013 µM |  | 
Cc1nc(N2CCc3ccccc3C2)c2c(-c3cc(N)nc(N)c3)c[nH]c2n1 [Example 114, 4-[4-(3,4-dihydroisoquinolin-2(1H)-yl)-2-methyl-7H-pyrrolo[2,3-d]pyrimidin-5-yl]pyridine-2,6-diamine] |  |  | 0.009 µM | 0.006 µM | 0.0162 µM
Cc1nc(OCc2ccccc2)c2c(-c3ccncc3)c[nH]c2n1 [Example 11, 4-(benzyloxy)-2-methyl-5-(pyridin-4-yl)-7H-pyrrolo[2,3-d]pyrimidine] | 0.0173 µM | 0.0132 µM | 0.012 µM |  | 
Cc1cc(-c2c[nH]c3nc(C)nc(NCc4ccsc4)c23)ccn1 [Example 45, 2-methyl-5-(2-methylpyridin-4-yl)-N-(thiophen-3-ylmethyl)-7H-pyrrolo[2,3-d]pyrimidin-4-amine] | 0.2 µM |  | 0.496 µM | 0.686 µM | 
COc1cccc(C(F)(F)F)c1CNc1nc(C)nc2[nH]cc(-c3ccnc(N)c3)c12 [Example 80, 5-(2-aminopyridin-4-yl)-N-[2-methoxy-6-(trifluoromethyl)benzyl]-2-methyl-7H-pyrrolo[2,3-d]pyrimidin-4-amine] | 0.0059 µM | 0.0106 µM | 0.004 µM | 0.0156 µM | 
Cc1nc(NCc2ccccc2C(F)(F)F)c2c(-c3ccnc(N)c3)c[nH]c2n1 [Example 64, 5-(2-aminopyridin-4-yl)-2-methyl-N-[2-(trifluoromethyl)benzyl]-7H-pyrrolo[2,3-d]pyrimidin-4-amine] | 0.0059 µM | 0.0093 µM | 0.015 µM | 0.234 µM | 
Cc1nc(NCC2CCCCC2)c2c(-c3ccnc(N)c3)c[nH]c2n1 [Example 48, 5-(2-aminopyridin-4-yl)-N-(cyclohexylmethyl)-2-methyl-7H-pyrrolo[2,3-d]pyrimidin-4-amine] | 0.043 µM |  | 0.044 µM | 0.208 µM | 
